{
  "source": "patent US20050282159A1",
  "about": "“Rpob gene of streptomyces, primer specific to streptomyces, and identification method of streptomyces having rifampin resistance or sensitivity by using the same” (priority 2001, published 2005)",
  "key": {"S. baldacii KCCM 41326": {"test_system": "S. baldacii KCCM 41326", "details": "TCG (TCC) genotype", "experimental": "(§1) The primer sets of SEQ ID NOs: 1 and 2 were used to amplify rpoB genes of 60 strains, and nucleotides of the […] products were analyzed with an automatic sequencer. SRPOF1 as a forward primer and SRPOR1 as a backward primer were used."}, "S. gougeroti KCCM 40681": {"test_system": "S. gougeroti KCCM 40681", "details": "TCG (TCC) genotype", "experimental": "as §1"}, "[1]": {"test_system": "S. amakusaensis KCTC 9753", "details": "TCG (TCC) genotype", "experimental": "as §1"}, "[2]": {"test_system": "S. californicus KCCM 40605", "details": "TCG (TCC) genotype", "experimental": "as §1"}, "[3]": {"test_system": "S. griseoflavus KCCM 12624", "details": "AAC genotype", "experimental": "as §1"}, "S. anulatus KCCM 40190": {"test_system": "S. anulatus KCCM 40190", "details": "AAC genotype", "experimental": "as §1"}, "[4]": {"test_system": "S. cyaneofuscatus KCCM 40517", "details": "TCG (TCC) genotype", "experimental": "as §1"}, "[5]": {"test_system": "S. ambofaciens KCCM 40182", "details": "AAC genotype", "experimental": "as §1"}, "S. candidus KCTC 9020": {"test_system": "S. candidus KCTC 9020", "details": "TCG (TCC) genotype", "experimental": "as §1"}, "S. cellulose KCTC 9703": {"test_system": "S. cellulose KCTC 9703", "details": "AAC genotype", "experimental": "as §1"}, "[6]": {"test_system": "S. griseostramineus KCCM 40526", "details": "TCG (TCC) genotype", "experimental": "as §1"}, "[7]": {"test_system": "S. griseolosporeus KCTC 9791", "details": "TCG (TCC) genotype", "experimental": "as §1"}, "S. althioticus KCTC 9752": {"test_system": "S. althioticus KCTC 9752", "details": "AAC genotype", "experimental": "as §1"}, "[8]": {"test_system": "S. cinnamoneus KCCM 40572", "details": "TCG (TCC) genotype", "experimental": "as §1"}, "S. eurythermus KCTC 9731": {"test_system": "S. eurythermus KCTC 9731", "details": "TCG (TCC) genotype", "experimental": "as §1"}, "S. albaduncus KCTC 1741": {"test_system": "S. albaduncus KCTC 1741", "details": "AAC genotype", "experimental": "as §1"}, "[9]": {"test_system": "S. antibioticus KCTC 1137", "details": "TCG (TCC) genotype", "experimental": "as §1"}, "S. erumpens KCTC 9729": {"test_system": "S. erumpens KCTC 9729", "details": "TCG (TCC) genotype", "experimental": "as §1"}, "S. murinus KCTC 9492": {"test_system": "S. murinus KCTC 9492", "details": "AAC genotype", "experimental": "as §1"}, "S. azureus KCCM 40485": {"test_system": "S. azureus KCCM 40485", "details": "TCG (TCC) genotype", "experimental": "as §1"}, "S. chivaensis KCTC 9786": {"test_system": "S. chivaensis KCTC 9786", "details": "AAC genotype", "experimental": "as §1"}, "S. albospinus KCTC 9762": {"test_system": "S. albospinus KCTC 9762", "details": "TCG (TCC) genotype", "experimental": "as §1"}, "S. fumanus KCCM 40522": {"test_system": "S. fumanus KCCM 40522", "details": "TCG (TCC) genotype", "experimental": "as §1"}, "[10]": {"test_system": "S. xanthocidicus KCCM 40286", "details": "AAC genotype", "experimental": "as §1"}, "S. piosus KCCM 40480": {"test_system": "S. piosus KCCM 40480", "details": "AAC genotype", "experimental": "as §1"}, "[11]": {"test_system": "S. yokosukanens KCCM 40633", "details": "AAC genotype", "experimental": "as §1"}, "S. rubiginosus KCTC 9042": {"test_system": "S. rubiginosus KCTC 9042", "details": "AAC genotype", "experimental": "as §1"}, "S. lividans KCTC 1154": {"test_system": "S. lividans KCTC 1154", "details": "AAC genotype", "experimental": "as §1"}, "[12]": {"test_system": "S. coerulescens KCCM 40508", "details": "TCG (TCC) genotype", "experimental": "as §1"}, "S. kurssanovi KCCM 40527": {"test_system": "S. kurssanovi KCCM 40527", "details": "TCG (TCC) genotype", "experimental": "as §1"}, "S. humiferus KCTC 9116": {"test_system": "S. humiferus KCTC 9116", "details": "AAC genotype", "experimental": "as §1"}, "S. fimbriatus KCCM 11888": {"test_system": "S. fimbriatus KCCM 11888", "details": "TCG (TCC) genotype", "experimental": "as §1"}, "S. coelescens KCCM 40742": {"test_system": "S. coelescens KCCM 40742", "details": "AAC genotype", "experimental": "as §1"}, "[13]": {"test_system": "S. flavovirens KCCM 40165", "details": "TCG (TCC) genotype", "experimental": "as §1"}, "[14]": {"test_system": "S. violaceoruber KCTC 9787", "details": "AAC genotype", "experimental": "as §1"}, "S. erythraeus KCCM 40477": {"test_system": "S. erythraeus KCCM 40477", "details": "TCG (TCC) genotype", "experimental": "as §1"}, "[15]": {"test_system": "S. albovinaceous KCCM 40177", "details": "TCG (TCC) genotype", "experimental": "as §1"}, "S. fulvissimus KCTC 9773": {"test_system": "S. fulvissimus KCTC 9773", "details": "TCG (TCC) genotype", "experimental": "as §1"}, "S. halstedii KCCM 40613": {"test_system": "S. halstedii KCCM 40613", "details": "TCG (TCC) genotype", "experimental": "as §1"}, "S. alboviridis KCTC 9750": {"test_system": "S. alboviridis KCTC 9750", "test": "rifampin-sensitive test on Bennet solid media", "type": "cell-based", "design": "key to genotype (rifampin-resistance or susceptibility): “(+)” indicates a genotype with rifampin-resistance; “(−)” indicates a genotype with rifampin-susceptibility", "experimental": "(§2) The 47 strains were respectively cultured at 28° C. for 72 hr in Bennet liquid media. The culture solution was then inoculated on Bennet solid media (yeast extract 1 g/L, Beef extract 1 g/L, Tryptone 2 g/L, Glycerol 10 g/L, Agar 15 g/L) containing 25 ug/ml rifampin, and after incubation for 72 hr, rifampin-resistance was tested."}, "S. cinerous KCTC 9066": {"test_system": "S. cinerous KCTC 9066", "test": "rifampin-sensitive test on Bennet solid media", "type": "cell-based", "design": "key to genotype (rifampin-resistance or susceptibility): “(+)” indicates a genotype with rifampin-resistance; “(−)” indicates a genotype with rifampin-susceptibility", "experimental": "as §2"}},
  "data": [
    {"smiles": "CO[C@H]1/C=C/O[C@@]2(C)Oc3c(C)c(O)c4c(O)c(c(/C=N/N5CCN(C)CC5)c(O)c4c3C2=O)NC(=O)/C(C)=C\\C=C\\[C@H](C)[C@H](O)[C@@H](C)[C@@H](O)[C@@H](C)[C@H](OC(C)=O)[C@@H]1C", "note": "[rifampin]", "values": [
      {"measurement": "genotype (rifampin-resistant or -sensitive strain)", "setting": "S. baldacii KCCM 41326", "value": "−"},
      {"measurement": "genotype (rifampin-resistant or -sensitive strain)", "setting": "S. gougeroti KCCM 40681", "value": "−"},
      {"measurement": "genotype (rifampin-resistant or -sensitive strain)", "setting": "[1]", "value": "−"},
      {"measurement": "genotype (rifampin-resistant or -sensitive strain)", "setting": "[2]", "value": "−"},
      {"measurement": "genotype (rifampin-resistant or -sensitive strain)", "setting": "[3]", "value": "+"},
      {"measurement": "genotype (rifampin-resistant or -sensitive strain)", "setting": "S. anulatus KCCM 40190", "value": "+"},
      {"measurement": "genotype (rifampin-resistant or -sensitive strain)", "setting": "[4]", "value": "−"},
      {"measurement": "genotype (rifampin-resistant or -sensitive strain)", "setting": "[5]", "value": "+"},
      {"measurement": "genotype (rifampin-resistant or -sensitive strain)", "setting": "S. candidus KCTC 9020", "value": "−"},
      {"measurement": "genotype (rifampin-resistant or -sensitive strain)", "setting": "S. cellulose KCTC 9703", "value": "+"},
      {"measurement": "genotype (rifampin-resistant or -sensitive strain)", "setting": "[6]", "value": "−"},
      {"measurement": "genotype (rifampin-resistant or -sensitive strain)", "setting": "[7]", "value": "−"},
      {"measurement": "genotype (rifampin-resistant or -sensitive strain)", "setting": "S. althioticus KCTC 9752", "value": "+"},
      {"measurement": "genotype (rifampin-resistant or -sensitive strain)", "setting": "[8]", "value": "−"},
      {"measurement": "genotype (rifampin-resistant or -sensitive strain)", "setting": "S. eurythermus KCTC 9731", "value": "−"},
      {"measurement": "genotype (rifampin-resistant or -sensitive strain)", "setting": "S. albaduncus KCTC 1741", "value": "+"},
      {"measurement": "genotype (rifampin-resistant or -sensitive strain)", "setting": "[9]", "value": "−"},
      {"measurement": "genotype (rifampin-resistant or -sensitive strain)", "setting": "S. erumpens KCTC 9729", "value": "−"},
      {"measurement": "genotype (rifampin-resistant or -sensitive strain)", "setting": "S. murinus KCTC 9492", "value": "+"},
      {"measurement": "genotype (rifampin-resistant or -sensitive strain)", "setting": "S. azureus KCCM 40485", "value": "−"},
      {"measurement": "genotype (rifampin-resistant or -sensitive strain)", "setting": "S. chivaensis KCTC 9786", "value": "+"},
      {"measurement": "genotype (rifampin-resistant or -sensitive strain)", "setting": "S. albospinus KCTC 9762", "value": "−"},
      {"measurement": "genotype (rifampin-resistant or -sensitive strain)", "setting": "S. fumanus KCCM 40522", "value": "−"},
      {"measurement": "genotype (rifampin-resistant or -sensitive strain)", "setting": "[10]", "value": "+"},
      {"measurement": "genotype (rifampin-resistant or -sensitive strain)", "setting": "S. piosus KCCM 40480", "value": "+"},
      {"measurement": "genotype (rifampin-resistant or -sensitive strain)", "setting": "[11]", "value": "+"},
      {"measurement": "genotype (rifampin-resistant or -sensitive strain)", "setting": "S. rubiginosus KCTC 9042", "value": "+"},
      {"measurement": "genotype (rifampin-resistant or -sensitive strain)", "setting": "S. lividans KCTC 1154", "value": "+"},
      {"measurement": "genotype (rifampin-resistant or -sensitive strain)", "setting": "[12]", "value": "−"},
      {"measurement": "genotype (rifampin-resistant or -sensitive strain)", "setting": "S. kurssanovi KCCM 40527", "value": "−"},
      {"measurement": "genotype (rifampin-resistant or -sensitive strain)", "setting": "S. humiferus KCTC 9116", "value": "+"},
      {"measurement": "genotype (rifampin-resistant or -sensitive strain)", "setting": "S. fimbriatus KCCM 11888", "value": "−"},
      {"measurement": "genotype (rifampin-resistant or -sensitive strain)", "setting": "S. coelescens KCCM 40742", "value": "+"},
      {"measurement": "genotype (rifampin-resistant or -sensitive strain)", "setting": "[13]", "value": "−"},
      {"measurement": "genotype (rifampin-resistant or -sensitive strain)", "setting": "[14]", "value": "+"},
      {"measurement": "genotype (rifampin-resistant or -sensitive strain)", "setting": "S. erythraeus KCCM 40477", "value": "−"},
      {"measurement": "genotype (rifampin-resistant or -sensitive strain)", "setting": "[15]", "value": "−"},
      {"measurement": "genotype (rifampin-resistant or -sensitive strain)", "setting": "S. fulvissimus KCTC 9773", "value": "−"},
      {"measurement": "genotype (rifampin-resistant or -sensitive strain)", "setting": "S. halstedii KCCM 40613", "value": "−"},
      {"measurement": "growth in media containing rifampin", "setting": "S. alboviridis KCTC 9750; S. alboviridis (KCTC 9750), Bennet solid media, FIG. 7 (B)", "value": "did not show growth"},
      {"measurement": "genotype (rifampin-resistance or susceptibility)", "setting": "S. alboviridis KCTC 9750; S. alboviridis KCTC 9750, TCG (TCC) genotype, 25 ug/ml rifampin, 72 hr", "value": "−"},
      {"measurement": "growth in media containing rifampin", "setting": "S. cinerous KCTC 9066; S. cinerous (KCTC 9066), Bennet solid media, FIG. 7 (A)", "value": "generated colonies"},
      {"measurement": "genotype (rifampin-resistance or susceptibility)", "setting": "S. cinerous KCTC 9066; S. cinerous KCTC 9066, AAC genotype, 25 ug/ml rifampin, 72 hr", "value": "+"}
    ]}
  ]
}
